Laboratory results: patent EP4775580A1, “COMPOUND, PHARMACEUTICAL COMPOSITION COMPRISING SAME, AND USE THEREOF” (Euregen Biopharma Co., Ltd., priority 2023, dated 2025)
pIC50: −log10 of the molar value. Like-named read-outs stand apart in the source and are kept apart here.

Key:
[1] = Pharmacokinetics in rats after single IV and PO administration (LC-MS/MS); type: in vivo, male SD rats; details: SD rats, comparative compounds; for PO F: PO 10 mg/kg vs IV 1 mg/kg according to Table 3; for AUC(0-t) / clearance / Cmax / Vd / half-life: male, rat, plasma; for clearance: read-out: IV CL; for Vd: read-out: IV Vss
Description: • 1. Objective: This study aimed to characterize the pharmacokinetic properties of selected compounds from the examples of the present invention in SD rats following single intravenous (IV) injection and oral (PO) administration using LC-MS/MS methodology. • 2. Experimental Materials: Test compounds were prepared according to the examples of the present invention; male SD rats were obtained from the Laboratory Animal Department of Shanghai Institute of Planned Parenthood Research (License No. SCXK(Shanghai)2018-0006) or Shanghai Jihui Laboratory Animal Breeding Co., Ltd. (License No. SCXK(Shanghai)2022-0009). • 3. Experimental Methods: Preparation of 0.5% methylcellulose: 5 g of methylcellulose was weighed and dissolved in 1000 mL of purified water. Preparation of 0.5% methylcellulose (pH = 5.03): 5 g of methylcellulose was weighed and dissolved in 1000 mL of purified water, and the pH was adjusted to 5.03 with 100 mM citric acid.
Preparation of oral formulations: The required amount of test compound was weighed and dissolved in 0.5% methylcellulose solution or 0.5% methylcellulose (pH = 5.03) to obtain a suspension or solution at 1 or 3 mg/mL.
Preparation of intravenous injection formulations: The required amount of test compound (EB229, EB300, EB341, EB342) was weighed and dissolved in 0.5 mL dimethyl sulfoxide to prepare a 4 mg/mL solution. To 0.25 mL of this solution, 0.5 mL of polyethylene glycol 15-hydroxystearate (Solutol) and 4.25 mL of normal saline were added to obtain a 0.2 mg/mL solution. For EB834, 6 mg was weighed and dissolved in 0.1 mL dimethyl sulfoxide, followed by addition of 0.2 mL polyethylene glycol 15-hydroxystearate (Solutol) and 1.7 mL normal saline to obtain a 3 mg/mL solution.
Dosing: Male SD rats were fasted overnight prior to oral (PO) administration; fasting was not required for the single intravenous (IV) injection group. Food was provided 4 hours post-dosing.
Sample Collection: Blood was collected from the jugular vein or other suitable veins, with 0.2 mL collected at each time point. Samples were placed in tubes containing dipotassium ethylenediaminetetraacetate and kept on ice prior to centrifugation. Within 1 hour of blood collection, samples were centrifuged at 6800 × g for 6 minutes at 2-8°C and stored at -80°C.

MV-4-11 cells [2] = assay: Antiproliferative activity against MV-4-11 cells (CTG method, 72 h); type: cell-based; details: Homo sapiens, MV4-11, 72 hours incubation, CellTiter-Glo
Description: • 1. Experimental Principle: MV-4-11 is a human leukemia cell line harboring MLL translocation and expressing the MLL fusion protein MLL-AF4. […] Experimental Materials: CellTiter-Glo was purchased from Promega (Cat. #G7571); IMDM medium was purchased from Gibco (Cat. #12440061); fetal bovine serum was purchased from Excell (Cat. #FND500); dimethyl sulfoxide (DMSO) was purchased from Sigma (Cat. #D2650); 384-well cell culture plates were purchased from Corning (Cat. #3756); automated cell counter was obtained from Life Technologies (Model: Countess II); microplate reader was obtained from PerkinElmer (Model: EnVision Multilabel Reader). • 3. Experimental Methods: Cells in logarithmic growth phase were resuspended in growth medium (IMDM + 10% FBS) and diluted to the target density (50,000/mL). The cell suspension was seeded into 384-well plates at 50 µL per well and incubated overnight at 37°C in a 5% CO2 incubator.
Test compounds were dissolved in DMSO to prepare 10 mM stock solutions. The stock solutions were first diluted to 2 mmol/L with DMSO, followed by 3-fold serial dilutions to generate 10 concentrations. From each concentration, 5.5 µL was diluted with 94.5 µL growth medium. The diluted solutions were then added to the 384-well plates containing seeded cells at 5 µL per well.
Cells treated with test compounds were incubated at 37°C in a 5% CO2 incubator for 72 hours. The 384-well plates were equilibrated at room temperature, and 15 µL of CellTiter-Glo reagent was added to each well. The plates were mixed on a vortex mixer for 2 minutes and incubated at room temperature for 60 minutes. Luminescence values were read using the EnVision Multilabel Reader, and IC50 values were calculated using GraphPad Prism 5.0 software.

HL-60 cells = assay: Antiproliferative activity, CellTiter-Glo, 7 days (Test Example 2), HL-60; type: cell-based; details: Homo sapiens, 168 h, HL-60 cells (no Menin-MLL fusion), 7 days incubation
Description: (§1) [0134] 1. Experimental Principle: MV-4-11, Molm-13, and OCI-AML-3 cells are human hematologic tumor cell lines harboring the Menin-MLL fusion. HL-60 is a wild-type human hematologic tumor cell line without Menin-MLL fusion. […] 2. Experimental Materials: MV-4-11, Molm-13, OCI-AML-3, and HL-60 cells were all purchased from Cobioer; CellTiter-Glo® was purchased from Promega (Cat. #G7571); RPMI-1640 was purchased from Viva Cell (Cat. #C3010-0500); IMDM was purchased from Viva Cell (Cat. #C3040-0500); fetal bovine serum (FBS) was purchased from Biosera (Cat. #FB-1058/500); penicillin-streptomycin was purchased from BasalMedia (Cat. #S110JV); 0.25% Trypsin-EDTA was purchased from BasalMedia (Cat. #S310KJ); dimethyl sulfoxide (DMSO) was purchased from Sinopharm (Cat. #30072418); 96-well plates were purchased from Corning (Cat. #3610); incubator was obtained from PHCbi (Model: MCO-18AC); inverted microscope was obtained from Mingmei (Cat. #MI52-0); automated cell counter was obtained from BodBoge (Model: JSY-SC-031N); microplate reader was obtained from PerkinElmer (Model: Envision); data processing software: GraphPad Prism 8.0. 3. Experimental Methods: Four cell lines in logarithmic growth phase were resuspended in their respective growth media (MV-4-11: IMDM + 20% FBS; Molm-13: RPMI-1640 + 20% FBS; OCI-AML-3: RPMI-1640 + 20% FBS; HL-60: RPMI-1640 + 10% FBS) and diluted to target densities (12,500, 6,250, 12,500, and 12,500/mL, respectively). The cell suspensions were seeded into 96-well plates at 80 µL per well and incubated overnight at 37°C in a 5% CO2 incubator. Culture medium served as the background control. Test compounds were dissolved in DMSO to prepare 10 mmol/L stock solutions. The stock solutions were first diluted to 2 mmol/L with DMSO, followed by 4-fold serial dilutions to generate 10 concentrations. From each concentration, 2 µL was diluted with 78 µL growth medium. […] After incubation at room temperature for 10 minutes, luminescence values were read using the EnVision microplate reader, and IC50 values were calculated using GraphPad Prism 8.0 software. […]

MV-4-11 cells [3] = assay: Antiproliferative activity, CellTiter-Glo, 7 days (Test Example 2), MV-4-11; type: cell-based; details: Homo sapiens, MV4-11, 168 h, 7 days incubation
Description: as §1

[4] = IV, dose 1 mg/kg according to Table 3, read-out: IV AUC(0-t)
[5] = IV, dose 1 mg/kg according to Table 3
[6] = IV, dose 1 mg/kg according to Table 3, read-out: IV Cmax
[7] = IV, dose 1 mg/kg according to Table 3, read-out: IV t1/2 (converted)
[8] = PO, dose 10 mg/kg in 0.5% MC according to Table 3, read-out: PO AUC(0-t)
[9] = PO, dose 10 mg/kg in 0.5% MC according to Table 3, read-out: PO Cmax
[10] = PO, dose 10 mg/kg in 0.5% MC according to Table 3, read-out: PO t1/2 (converted)

CCN(C(=O)c1cc(F)ccc1N1CCN(C2CCN(Cc3ccc4[nH]c(C#N)cc4c3C)CC2)c2ncncc21)C(C)C [Comparative Comp. 7]
PO F [1]: 3.7% | AUC(0-t) [1, 4]: 264 ng·h/mL | clearance [1, 5]: 62.1 mL/min/kg | Cmax [1, 6]: 152 ng/mL | Vd [1, 5]: 6.62 L/kg | half-life [1, 7]: 1.55 h | AUC(0-t) [1, 8]: 119 ng·h/mL | Cmax [1, 9]: 27 ng/mL | half-life [1, 10]: 2.29 h

CCN(C(=O)c1cc(F)ccc1N1CCN(C2CCN(Cc3ccc4c(cc(C#N)n4C[C@@H]4CCNC4)c3C)CC2)c2ncncc21)C(C)C [Comparative Comp. 8]
PO F [1]: 13.85% | AUC(0-t) [1, 4]: 85.7 ng·h/mL | clearance [1, 5]: 185 mL/min/kg | Cmax [1, 6]: 271 ng/mL | Vd [1, 5]: 9.61 L/kg | half-life [1, 7]: 2.06 h | AUC(0-t) [1, 8]: 119 ng·h/mL | Cmax [1, 9]: 41.9 ng/mL | half-life [1, 10]: 1.8 h

CCN(C(=O)c1cc(F)ccc1N1CCN(C2CCN(Cc3ccc4c(cc(C#N)n4CC4CNC4)c3C)CC2)c2ncncc21)C(C)C [Comparative Comp. 9]
PO F [1]: 13.50% | AUC(0-t) [1, 4]: 169 ng·h/mL | clearance [1, 5]: 92.4 mL/min/kg | Cmax [1, 6]: 376 ng/mL | Vd [1, 5]: 30.6 L/kg | half-life [1, 7]: 5.98 h | AUC(0-t) [1, 8]: 228 ng·h/mL | Cmax [1, 9]: 101 ng/mL | half-life [1, 10]: 5.12 h

CCN(C(=O)c1cc(F)ccc1N1CCN(C2CCN(Cc3ccc4c(cc(C#N)n4CC4COC4)c3C)CC2)c2ncncc21)C(C)C [Comparative Comp. 10]
PO F [1]: 49.68% | AUC(0-t) [1, 4]: 16.9 ng·h/mL | clearance [1, 5]: 947 mL/min/kg | Cmax [1, 6]: 16.2 ng/mL | Vd [1, 5]: 59.4 L/kg | half-life [1, 7]: 0.82 h | AUC(0-t) [1, 8]: 83.8 ng·h/mL | Cmax [1, 9]: 33.3 ng/mL | half-life [1, 10]: 1.26 h

CCN(C(=O)c1cc(F)ccc1N1CCN(C2CCN(C[C@H]3CC[C@H](NS(C)(=O)=O)CC3)C2)c2ncncc21)C(C)C (stereo partly shown) [Comparative Compound 1]
pIC50 (MV-4-11 cells [2]): 6.53

CCN(C(=O)c1cc(F)ccc1N1CCN(C2CCN(Cc3ccc4[nH]c(C#N)cc4c3C)C2)c2ncncc21)C(C)C (stereo not shown) [Comparative Compound 2]
pIC50 (MV-4-11 cells [2]): 6.10

CNc1nc(NC2CCN(Cc3ccc4c(cc(C#N)n4C[C@H](C)N4CCN(S(C)(=O)=O)CC4)c3C)CC2)c2cc(CC(F)(F)F)sc2n1 [KO539]
pIC50 (HL-60 cells): 5.69 | pIC50 (MV-4-11 cells [3]): 7.84
